# Results: ChEMBL document CHEMBL3885861, “Open TG-GATES”
# Organism: Rattus norvegicus
# Assay: Open TG-GATES - Regimen: Single
# Format: toxicity, organism-based, Sprague-Dawley
# Design: regimen Single, gender Male, age 6 weeks
# Settings: in vivo, ip, 0.001 mg/kg, route intraperitoneal injection, dose 1 ug/Kg, dose level Low; for APTT / Bas / Eos / Fbg / Hb / Ht / Lym / MCH / MCHC / MCV / Mono / Neu / PT / Plat / RBC / Ret / WBC: tissue Blood; for KIDNEY_L / KIDNEY_R / KIDNEY_TOTAL: tissue Kidney; for LIVER: tissue Liver; for A/G / ALP / ALT / AST / BUN / CRE / Ca / Cl / DBIL / GLC / IP / K / LDH / Na / PL / RALB / TBIL / TC / TG / TP / gamma-GTP: tissue Plasma
substance,measurement,setting,value
H-KGDRLS-OH [TNF-ALPHA],TERMINAL_BW,3 h,199 g
same,APTT,3 h,17.8 s
same,Bas,3 h,0.4%
same,Eos,3 h,0.4%
same,Fbg,3 h,267.2 mg/dL
same,Hb,3 h,12.9 g/dL
same,Ht,3 h,39.8%
same,Lym,3 h,65.8%
same,MCH,3 h,21.4 pg
same,MCHC,3 h,32.4%
same,MCV,3 h,65.8 fL
same,Mono,3 h,4.2%
same,Neu,3 h,28%
same,PT,3 h,15.4 s
same,Plat,3 h,115.7 x10_4/uL
same,RBC,3 h,605.4 x10_4/ul
same,Ret,3 h,9.7%
same,WBC,3 h,95.8 x10_2/uL
same,KIDNEY_L,3 h,0.9 g
same,KIDNEY_R,3 h,0.9 g
same,KIDNEY_TOTAL,3 h,1.8 g
same,LIVER,3 h,9.3 g
same,A/G,3 h,0.9
same,ALP,3 h,1460 IU/L
same,ALT,3 h,47.8 IU/L
same,AST,3 h,77.2 IU/L
same,BUN,3 h,10.4 mg/dL
same,CRE,3 h,0.2 mg/dL
same,Ca,3 h,10.8 mg/dL
same,Cl,3 h,105.6 meq/L
same,DBIL,3 h,0.01 mg/dL
same,GLC,3 h,177.2 mg/dL
same,IP,3 h,9.8 mg/dL
same,K,3 h,4.1 meq/L
same,LDH,3 h,69.6 IU/L
same,Na,3 h,142 meq/L
same,PL,3 h,154.4 mg/dL
same,RALB,3 h,2.4 g/dL
same,TBIL,3 h,0.056 mg/dL
same,TC,3 h,83 mg/dL
same,TG,3 h,71.6 mg/dL
same,TP,3 h,5.2 g/dL
same,gamma-GTP,3 h,1.2 IU/L
same,TERMINAL_BW,6 h,195 g
same,APTT,6 h,16.4 s
same,Bas,6 h,0%
same,Eos,6 h,0.2%
same,Fbg,6 h,310.6 mg/dL
same,Hb,6 h,12.9 g/dL
same,Ht,6 h,39.3%
same,Lym,6 h,53.8%
same,MCH,6 h,21.1 pg
same,MCHC,6 h,32.8%
same,MCV,6 h,64.3 fL
same,Mono,6 h,2%
same,Neu,6 h,43.2%
same,PT,6 h,15.3 s
same,Plat,6 h,115.3 x10_4/uL
same,RBC,6 h,612.4 x10_4/ul
same,Ret,6 h,8.4%
same,WBC,6 h,82.5 x10_2/uL
same,KIDNEY_L,6 h,0.8 g
same,KIDNEY_R,6 h,0.9 g
same,KIDNEY_TOTAL,6 h,1.7 g
same,LIVER,6 h,8.3 g
same,A/G,6 h,0.9
same,ALP,6 h,1365.6 IU/L
same,ALT,6 h,36.4 IU/L
same,AST,6 h,69 IU/L
same,BUN,6 h,7.8 mg/dL
same,CRE,6 h,0.2 mg/dL
same,Ca,6 h,10.8 mg/dL
same,Cl,6 h,105.2 meq/L
same,DBIL,6 h,0.006 mg/dL
same,GLC,6 h,171.4 mg/dL
same,IP,6 h,10 mg/dL
same,K,6 h,3.7 meq/L
same,LDH,6 h,69.2 IU/L
same,Na,6 h,143.4 meq/L
same,PL,6 h,139.8 mg/dL
same,RALB,6 h,2.5 g/dL
same,TBIL,6 h,0.06 mg/dL
same,TC,6 h,80.4 mg/dL
same,TG,6 h,31.6 mg/dL
same,TP,6 h,5.3 g/dL
same,gamma-GTP,6 h,1.2 IU/L
same,TERMINAL_BW,9 h,195.3 g
same,APTT,9 h,16.7 s
same,Bas,9 h,0%
same,Eos,9 h,0.2%
same,Fbg,9 h,364.8 mg/dL
same,Hb,9 h,13 g/dL
same,Ht,9 h,40.1%
same,Lym,9 h,68.2%
same,MCH,9 h,21.4 pg
same,MCHC,9 h,32.4%
same,MCV,9 h,66.1 fL
same,Mono,9 h,2.2%
same,Neu,9 h,28.6%
same,PT,9 h,15.3 s
same,Plat,9 h,97.2 x10_4/uL
same,RBC,9 h,607 x10_4/ul
same,Ret,9 h,8.6%
same,WBC,9 h,61.4 x10_2/uL
same,KIDNEY_L,9 h,0.9 g
same,KIDNEY_R,9 h,0.9 g
same,KIDNEY_TOTAL,9 h,1.8 g
same,LIVER,9 h,8.4 g
same,A/G,9 h,0.9
same,ALP,9 h,1554.2 IU/L
same,ALT,9 h,38.8 IU/L
same,AST,9 h,71.4 IU/L
same,BUN,9 h,8.2 mg/dL
same,CRE,9 h,0.2 mg/dL
same,Ca,9 h,10.6 mg/dL
same,Cl,9 h,105.2 meq/L
same,DBIL,9 h,0.008 mg/dL
same,GLC,9 h,169.6 mg/dL
same,IP,9 h,10.5 mg/dL
same,K,9 h,3.7 meq/L
same,LDH,9 h,47.8 IU/L
same,Na,9 h,142.4 meq/L
same,PL,9 h,154.2 mg/dL
same,RALB,9 h,2.5 g/dL
same,TBIL,9 h,0.066 mg/dL
same,TC,9 h,84 mg/dL
same,TG,9 h,39.6 mg/dL
same,TP,9 h,5.4 g/dL
same,gamma-GTP,9 h,1 IU/L
same,TERMINAL_BW,24 h,211.6 g
same,APTT,24 h,17.8 s
same,Bas,24 h,0%
same,Eos,24 h,1%
same,Fbg,24 h,353.2 mg/dL
same,Hb,24 h,13.1 g/dL
same,Ht,24 h,40.4%
same,Lym,24 h,79.4%
same,MCH,24 h,21.5 pg
same,MCHC,24 h,32.4%
same,MCV,24 h,66.4 fL
same,Mono,24 h,3%
same,Neu,24 h,15.8%
same,PT,24 h,15.4 s
same,Plat,24 h,108.1 x10_4/uL
same,RBC,24 h,608.8 x10_4/ul
same,Ret,24 h,8.2%
same,WBC,24 h,71.1 x10_2/uL
same,KIDNEY_L,24 h,0.9 g
same,KIDNEY_R,24 h,0.9 g
same,KIDNEY_TOTAL,24 h,1.8 g
same,LIVER,24 h,10.2 g
same,A/G,24 h,0.8
same,ALP,24 h,1816.8 IU/L
same,ALT,24 h,43.2 IU/L
same,AST,24 h,70.8 IU/L
same,BUN,24 h,15.4 mg/dL
same,CRE,24 h,0.2 mg/dL
same,Ca,24 h,11.3 mg/dL
same,Cl,24 h,106 meq/L
same,DBIL,24 h,0.008 mg/dL
same,GLC,24 h,185.4 mg/dL
same,IP,24 h,8.7 mg/dL
same,K,24 h,4.5 meq/L
same,LDH,24 h,86.4 IU/L
same,Na,24 h,142.2 meq/L
same,PL,24 h,158.6 mg/dL
same,RALB,24 h,2.7 g/dL
same,TBIL,24 h,0.042 mg/dL
same,TC,24 h,81.8 mg/dL
same,TG,24 h,80.2 mg/dL
same,TP,24 h,5.8 g/dL
same,gamma-GTP,24 h,1 IU/L
